Where “and” joins values, the source holds several entries; their conditions need not be identical. Identical values can stand only once. Counter-ions that a name gives are not always drawn.
Assays:
[1] = test system: Erysiphe graminis f. sp. hordei; assay: whole plant or invertebrate; format: in vivo; details: for pest or weed control at 500 ppm / pest or weed control at 200 ppm / pest or weed control at 50 ppm / pest or weed control at 100 ppm: Blumeria graminis, in Hordeum vulgare, foliar, read-out: Barley Powdery Mildew Percent Disease Control; for Barley Powdery Mildew Percent Disease Control: in vivo
[2] = Thermal decomposition point (Differential Thermal Analyzer); format: physicochemical; details: 20° C./min, onset method
Experimental: By the procedure of Examples 2 and 5 the following novel salts of 2,3,5,6-tetrachloro-N-nitroaniline are prepared as listed in Table II below. The melting points (uncorrected) of said salts are determined on a Thomas Hoover Capillary Melting Point Apparatus; while the thermal decomposition points of said salts are determined on a Dupont 900 Differential Thermal Analyzer. […] Decompositions are recorded by an exothermic response and the temperatures given in Table II below are assessed by the "onset method".

[3] = test system: Venturia inaequalis (Cke.) Wint.; assay: whole plant or invertebrate; format: in vivo; details: for pest or weed control at 500 ppm / pest or weed control at 200 ppm: Venturia inaequalis, foliar, read-out: Apple Scab Percent Disease Control; for activity against apple scab: in vivo
[4] = test system: Podosphaera leucotricha (E&E) Salm.; assay: whole plant or invertebrate; format: in vivo; details: for pest or weed control at 500 ppm: Podosphaera leucotricha, foliar, read-out: Apple Powdery Mildew Percent Disease Control; for activity against apple powdery mildew: in vivo

## O=[N+]([O-])Nc1cc(Cl)c(Cl)c(Cl)c1Cl
[1]
  pest or weed control at 500 ppm: 84%

## O=[N+]([O-])Nc1cccc(Cl)c1Cl [drawing 89]
[1]
  pest or weed control at 500 ppm: 100%

## O=[N+]([O-])Nc1c(Cl)c(Cl)cc(Cl)c1Cl [NH2 (CH2C6 H5)2, dibenzylamine salt of 2,3,5,6-tetrachloro-N-nitroaniline]
[2]
  Thermal Decomposition Point: 183 °C

## O=[N+]([O-])Nc1c(Cl)c(Cl)cc(Cl)c1Cl [NH3 C16 H33]
[2]
  Thermal Decomposition Point: 148.5 °C

## CC(=O)Nc1cc(Cl)c(N[N+](=O)[O-])c(Cl)c1 [drawing 68]
[3]
  pest or weed control at 500 ppm: 76%

## CN(c1c(Cl)c(Cl)cc(Cl)c1Cl)[N+](=O)[O-]
[1]
  pest or weed control at 500 ppm: 100%

## O=[N+]([O-])Nc1cccc(Br)c1 [drawing 99]
[1]
  pest or weed control at 500 ppm: 96%

## CC(=O)Nc1cc(Cl)c(N[N+](=O)[O-])c(Cl)c1 [drawing 107]
[1]
  pest or weed control at 500 ppm: 84%

## O=[N+]([O-])Nc1cccc(Cl)c1Cl [drawing 64]
[3]
  pest or weed control at 200 ppm: 67%
  pest or weed control at 500 ppm: 76%

## Cc1c(Cl)cccc1N[N+](=O)[O-]
[4]
  pest or weed control at 500 ppm: 84%

## O=[N+]([O-])Nc1cccc(Cl)c1Cl [2,3-dichlorophenylnitramine]
[4]
  activity against apple powdery mildew: active
[3]
  activity against apple scab: active

## CS(=O)(=O)c1ccc(N[N+](=O)[O-])cc1 [4-methylsulfonylphenylnitramine]
[3]
  activity against apple scab: active

## CN(c1c(Br)cccc1Br)[N+](=O)[O-]
[1]
  pest or weed control at 500 ppm: 89%

## CCN(c1c(Br)cccc1Br)[N+](=O)[O-]
[1]
  pest or weed control at 500 ppm: 89%

## O=[N+]([O-])Nc1c(Cl)c(Cl)cc(Cl)c1Cl [2,3,5,6-tetrachlorophenylnitramine N-barium salt]
[3]
  activity against apple scab: active

## O=[N+]([O-])Nc1cccc(Br)c1 [drawing 77]
[4]
  pest or weed control at 500 ppm: 84%

## O=[N+]([O-])Nc1c(Cl)c(Cl)cc(Cl)c1Cl [NH(C2 H5)3]
[2]
  Thermal Decomposition Point: 169 °C

## O=[N+]([O-])Nc1c(Cl)c(Cl)cc(Cl)c1Cl [NHC18 H37 . (CH2 CH2 O)2 H . (CH2 CH2 O)3 H]
[2]
  Thermal Decomposition Point: 153-157 °C

## O=[N+]([O-])Nc1c(Cl)c(Cl)cc(Cl)c1Cl [drawing 21]
[2]
  Thermal Decomposition Point: 176 °C

## O=[N+]([O-])Nc1c(Cl)cccc1Cl [2,6-dichloro-]
[4]
  activity against apple powdery mildew: active

## O=[N+]([O-])Nc1c(Cl)c(Cl)cc(Cl)c1Cl [drawing 118]
[1]
  Barley Powdery Mildew Percent Disease Control: 100%

## O=[N+]([O-])Nc1c(Cl)c(Cl)cc(Cl)c1Cl [NH2 (C4 H9)2]
[2]
  Thermal Decomposition Point: 207 °C

## CC(C)N(c1c(Cl)c(Cl)cc(Cl)c1Cl)[N+](=O)[O-] [--(CH(CH3)2]
[3]
  activity against apple scab: active

## O=[N+]([O-])Nc1c(Cl)c(Cl)cc(Cl)c1Cl [drawing 69]
[3]
  pest or weed control at 500 ppm: 76%

## O=[N+]([O-])Nc1c(Cl)cccc1Cl [drawing 91]
[1]
  pest or weed control at 500 ppm: 100%

## O=[N+]([O-])Nc1ccc(Cl)cc1Cl [drawing 90]
[1]
  pest or weed control at 500 ppm: 100%

## O=[N+]([O-])Nc1ccc(Cl)c(C(F)(F)F)c1 [drawing 80]
[4]
  pest or weed control at 500 ppm: 84%

## CC(C)OC(=O)Nc1cc(Cl)c(N[N+](=O)[O-])c(Cl)c1
[1]
  pest or weed control at 200 ppm: 97%

## O=[N+]([O-])Nc1ccc(Cl)c(C(F)(F)F)c1 [4-chloro-3-trifluoromethyl-]
[4]
  activity against apple powdery mildew: active

## O=[N+]([O-])Nc1c(Cl)c(Cl)cc(Cl)c1Cl [NH3 CH2 CH2 NH2]
[2]
  Thermal Decomposition Point: 208 °C

## O=[N+]([O-])Nc1c(Cl)c(Cl)cc(Cl)c1Cl [drawing 100]
[1]
  Barley Powdery Mildew Percent Disease Control: 100% and 95%

## N#Cc1ccc(N[N+](=O)[O-])c(Br)c1
[1]
  pest or weed control at 500 ppm: 100%

## O=[N+]([O-])Nc1c(Br)cc(C(F)(F)F)cc1Br [drawing 67]
[3]
  pest or weed control at 500 ppm: 76%

## COC(=O)CN(c1c(Cl)c(Cl)cc(Cl)c1Cl)[N+](=O)[O-] [drawing 73]
[3]
  pest or weed control at 200 ppm: 83%
  pest or weed control at 500 ppm: 96%

## Cc1cc([N+](=O)[O-])cc(C)c1N[N+](=O)[O-] [2,6-dimethyl-4-nitro-]
[4]
  activity against apple powdery mildew: active

## O=[N+]([O-])Nc1c(Cl)c(Cl)cc(Cl)c1Cl [NH3 (CH2)3 NHC12 H25 -n]
[2]
  Thermal Decomposition Point: 184 °C

## O=[N+]([O-])Nc1c(Br)cc(C(F)(F)F)cc1Br [drawing 79]
[4]
  pest or weed control at 500 ppm: 84%

## O=[N+]([O-])Nc1c(Cl)c(Cl)cc(Cl)c1Cl [NH3 CH2 CH2 OH, ethanolamine salt of 2,3,5,6-tetrachloro-N-nitroaniline]
[2]
  Thermal Decomposition Point: 203 °C

## O=[N+]([O-])Nc1cccc(Cl)c1C(F)(F)F [3-chloro-2-trifluoromethyl-]
[4]
  activity against apple powdery mildew: active

## COC(=O)CN(c1c(Cl)c(Cl)cc(Cl)c1Cl)[N+](=O)[O-] [drawing 122]
[1]
  pest or weed control at 500 ppm: 84%

## CC(=O)N(c1c(Cl)c(Cl)cc(Cl)c1Cl)[N+](=O)[O-] [drawing 83]
[4]
  pest or weed control at 500 ppm: 92%

## O=[N+]([O-])Nc1c(Cl)c(Cl)cc(Cl)c1Cl [NH3 C12 H25 -n]
[2]
  Thermal Decomposition Point: 166 °C

## CCC(=O)Nc1cc(Cl)c(N[N+](=O)[O-])c(Cl)c1 [drawing 112]
[1]
  Barley Powdery Mildew Percent Disease Control: 89%

## COC(=O)CN(c1c(Cl)c(Cl)cc(Cl)c1Cl)[N+](=O)[O-] [--CH2 COOCH3]
[3]
  activity against apple scab: active

## O=[N+]([O-])Nc1c(Cl)c(Cl)cc(Cl)c1Cl [drawing 25]
[2]
  Thermal Decomposition Point: 173 °C

## O=[N+]([O-])Nc1c(Cl)c(Cl)cc(Cl)c1Cl [NH(CH2 CH2 OH)3]
[2]
  Thermal Decomposition Point: 150 °C

## O=[N+]([O-])Nc1cccc(Cl)c1Cl [drawing 74]
[4]
  pest or weed control at 500 ppm: 96%

## O=[N+]([O-])Nc1c(Br)cc(C(F)(F)F)cc1Br [drawing 102]
[1]
  pest or weed control at 200 ppm: 83%
  pest or weed control at 500 ppm: 100%

## O=[N+]([O-])Nc1c(Cl)c(Cl)cc(Cl)c1Cl [drawing 24]
[2]
  Thermal Decomposition Point: 138 °C

## CCc1cccc(CC)c1N[N+](=O)[O-]
[1]
  pest or weed control at 500 ppm: 100%

## O=[N+]([O-])Nc1c(Cl)c(Cl)cc(Cl)c1Cl [NH4]
[2]
  Thermal Decomposition Point: 178 °C

## O=[N+]([O-])Nc1c(Cl)c(Cl)cc(Cl)c1Cl [drawing 26]
[2]
  Thermal Decomposition Point: 203 °C

## O=[N+]([O-])Nc1c(Cl)c(Cl)cc(Cl)c1Cl [NH(C3 H7)3]
[2]
  Thermal Decomposition Point: 154 °C

## O=[N+]([O-])Nc1c(Cl)c(Cl)cc(Cl)c1Cl [NH3 C8 H17]
[2]
  Thermal Decomposition Point: 163 °C

## O=[N+]([O-])Nc1c(Cl)c(Cl)cc(Cl)c1Cl [NH2 (CH2 CH2 OH)2]
[2]
  Thermal Decomposition Point: 173 °C and 177 °C

## Cc1cc([N+](=O)[O-])cc(C)c1N[N+](=O)[O-] [drawing 101]
[1]
  pest or weed control at 500 ppm: 100%

## O=[N+]([O-])Nc1ccccc1Cl
[3]
  pest or weed control at 500 ppm: 93%

## Cc1cc([N+](=O)[O-])cc(C)c1N[N+](=O)[O-] [drawing 78]
[4]
  pest or weed control at 500 ppm: 84%

## O=[N+]([O-])Nc1c(Cl)c(Cl)cc(Cl)c1Cl [drawing 87]
[1]
  pest or weed control at 50 ppm: 48%
  pest or weed control at 500 ppm: 84%
  Barley Powdery Mildew Percent Disease Control: 71%

## O=[N+]([O-])Nc1ccc(Cl)cc1Cl [2,4-dichlorophenylnitramine]
[3]
  activity against apple scab: active

## CCC(=O)Nc1cc(Cl)c(N[N+](=O)[O-])c(Cl)c1 [drawing 108]
[1]
  pest or weed control at 500 ppm: 100%

## O=[N+]([O-])Nc1c(Cl)c(Cl)cc(Cl)c1Cl [drawing 23]
[2]
  Thermal Decomposition Point: 163 °C

## O=[N+]([O-])Nc1cccc(Br)c1 [3-bromophenylnitramine]
[4]
  activity against apple powdery mildew: active

## O=[N+]([O-])Nc1cccc(C(F)(F)F)c1
[1]
  pest or weed control at 500 ppm: 96%

## O=[N+]([O-])Nc1c(Cl)c(Cl)cc(Cl)c1Cl [NH2 (C18 H37)2]
[2]
  Thermal Decomposition Point: 168 °C

## CC(=O)N(c1c(Cl)c(Cl)cc(Cl)c1Cl)[N+](=O)[O-] [drawing 121]
[1]
  pest or weed control at 50 ppm: 95%
  pest or weed control at 100 ppm: 95%
  pest or weed control at 200 ppm: 95%
  pest or weed control at 500 ppm: 100%

## O=[N+]([O-])N(Cc1ccccc1)c1c(Br)cccc1Br
[1]
  pest or weed control at 500 ppm: 100%

## O=[N+]([O-])Nc1c(Cl)c(Cl)cc(Cl)c1Cl [K]
[2]
  Thermal Decomposition Point: 272 °C

## O=[N+]([O-])Nc1c(Cl)c(Cl)cc(Cl)c1Cl [NH3 (CH2)8 CHCH(CH2)7 CH3]
[2]
  Thermal Decomposition Point: 157 °C

## CC(=O)Nc1cc(Cl)c(N[N+](=O)[O-])c(Cl)c1 [2,6-dichloro-4-acetamidophenylnitramine]
[3]
  activity against apple scab: active

## O=[N+]([O-])Nc1c(Cl)c(Cl)cc(Cl)c1Cl [NH3 CH3]
[2]
  Thermal Decomposition Point: 183 °C

## O=[N+]([O-])Nc1ccc(C(F)(F)F)cc1 [drawing 84]
[1]
  pest or weed control at 50 ppm: 84%
  pest or weed control at 100 ppm: 95%
  pest or weed control at 200 ppm: 91%
  pest or weed control at 500 ppm: 96%

## O=[N+]([O-])Nc1c(Cl)c(Cl)cc(Cl)c1Cl [NH2 (C3 H7)2]
[2]
  Thermal Decomposition Point: 204 °C

## O=[N+]([O-])Nc1c(Cl)c(Cl)cc(Cl)c1Cl [drawing 22]
[2]
  Thermal Decomposition Point: 143 °C

## CS(=O)(=O)c1ccc(N[N+](=O)[O-])cc1 [drawing 93]
[1]
  pest or weed control at 500 ppm: 100%

## O=[N+]([O-])Nc1c(Cl)cccc1Cl [drawing 75]
[4]
  pest or weed control at 500 ppm: 84%

## O=[N+]([O-])Nc1c(Cl)c(Cl)cc(Cl)c1Cl [NH(CH3)2 . C6 H5, N,N-dimethylaniline salt of 2,3,5,6-tetrachloro-N-nitroaniline]
[2]
  Thermal Decomposition Point: 128 °C

## CS(=O)(=O)c1ccc(N[N+](=O)[O-])cc1 [drawing 66]
[3]
  pest or weed control at 500 ppm: 76%

## O=[N+]([O-])Nc1c(Cl)c(Cl)cc(Cl)c1Cl [drawing 123]
[1]
  Barley Powdery Mildew Percent Disease Control: 98% and 96%

## CC(C)N(c1c(Br)cccc1Br)[N+](=O)[O-]
[1]
  pest or weed control at 500 ppm: 100%

— patent publication US4130645A (priority 1978, dated 1978)
